Target: T1, proTNFα convertase enzyme (TACE) (Homo sapiens, UniProt P78536)
T1 construct: a partially purified, isolated enzyme assay, the enzyme being obtained from the membranes of THP-1; endogenous in cells; host or cells: THP-1 cell membranes (partially purified, per Mohler et al. 1994 Nature 370:218-220)
Assay: Partially purified, isolated enzyme assay for proTNFα convertase (TACE), fluorescent peptide substrate
Type: biochemical
Details: 10 μM of compound; enzyme from membranes of THP-1
Description: Recombinant human proMMP13 may be expressed and purified as described by Knauper et al. [V. Knauper et al., (1996) The Biochemical Journal 271:1544-1550 (1996)]. […] Activity is determined by measuring the fluorescence at λex 328 nm and λem 393 nm. Percent inhibition is calculated as follows: % Inhibition is equal to the [Fluorescenceplus inhibitor−Fluorescencebackgrouud] divided by the [Fluorescenceminus inhibitor−Fluorescencebackground].
The ability of the compounds to inhibit proTNFα convertase enzyme (TACE) may be assessed using a partially purified, isolated enzyme assay, the enzyme being obtained from the membranes of THP-1 as described by K. M. Mohler et al., (1994) Nature 370:218-220. The purified enzyme activity and inhibition thereof is determined by incubating the partially purified enzyme in the presence or absence of test compounds using the substrate 4′,5′-Dimethoxy-fluoresceinyl Ser.Pro.Leu.Ala.Gln.Ala.Val.Arg.Ser.Ser.Ser.Arg.Cys(4-(3-succinimid-1-yl)-fluorescein)-NH2 in assay buffer (50 mM Tris HCl, pH 7.4 containing 0.1% (w/v) Triton X-100 and 2 mM CaCl2), at 26° C. for 4 hours. The amount of inhibition is determined as for MMP13 except λex 485 nm and λem 538 nm were used. […]

T1 sequence (P78536 215-824): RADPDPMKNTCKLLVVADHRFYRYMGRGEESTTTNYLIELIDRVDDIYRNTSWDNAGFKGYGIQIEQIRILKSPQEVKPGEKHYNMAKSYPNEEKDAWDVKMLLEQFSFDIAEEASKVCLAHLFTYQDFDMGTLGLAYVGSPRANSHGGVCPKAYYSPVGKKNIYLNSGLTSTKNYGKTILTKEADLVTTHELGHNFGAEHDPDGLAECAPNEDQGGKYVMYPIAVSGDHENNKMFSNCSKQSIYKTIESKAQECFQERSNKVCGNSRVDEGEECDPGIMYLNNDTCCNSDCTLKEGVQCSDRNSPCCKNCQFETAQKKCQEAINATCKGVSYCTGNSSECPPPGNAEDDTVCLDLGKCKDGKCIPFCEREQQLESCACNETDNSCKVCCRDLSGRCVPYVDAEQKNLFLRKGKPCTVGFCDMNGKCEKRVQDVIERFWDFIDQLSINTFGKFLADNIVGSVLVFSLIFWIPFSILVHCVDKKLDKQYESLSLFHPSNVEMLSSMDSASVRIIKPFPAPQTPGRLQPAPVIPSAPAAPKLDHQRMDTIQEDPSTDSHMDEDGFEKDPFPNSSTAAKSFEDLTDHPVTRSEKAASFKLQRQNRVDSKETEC

With `CC#CCOC1CCN(S(=O)(=O)CC(CCCc2ncccn2)N(O)C=O)CC1` (racemic) [compound 1, (R/S)-1-({[4-(But-2-ynyloxy)piperidin-1-yl]sulphonyl}methyl)-4-pyrimidin-2-ylbutyl(hydroxy)formamide] the inhibition at 10 µM was 72%.

From patent publication US20060063783A1, “Sulphonylpiperidine derivatives containing an alkenyl or alkynyl moiety for use as matrix metalloproteinase inhibitors” (ASTRAZENECA AB, priority 2002, published 2006)
